Results on 34 compounds are retold here after patent publication US7851474B2, “Dipiperazinyl ketones and related analogues” (Neurogen Corporation, priority 2005, dated 2010).

T1 sequence (Q9Y5N1 with tags, fused parts or gaps E19D): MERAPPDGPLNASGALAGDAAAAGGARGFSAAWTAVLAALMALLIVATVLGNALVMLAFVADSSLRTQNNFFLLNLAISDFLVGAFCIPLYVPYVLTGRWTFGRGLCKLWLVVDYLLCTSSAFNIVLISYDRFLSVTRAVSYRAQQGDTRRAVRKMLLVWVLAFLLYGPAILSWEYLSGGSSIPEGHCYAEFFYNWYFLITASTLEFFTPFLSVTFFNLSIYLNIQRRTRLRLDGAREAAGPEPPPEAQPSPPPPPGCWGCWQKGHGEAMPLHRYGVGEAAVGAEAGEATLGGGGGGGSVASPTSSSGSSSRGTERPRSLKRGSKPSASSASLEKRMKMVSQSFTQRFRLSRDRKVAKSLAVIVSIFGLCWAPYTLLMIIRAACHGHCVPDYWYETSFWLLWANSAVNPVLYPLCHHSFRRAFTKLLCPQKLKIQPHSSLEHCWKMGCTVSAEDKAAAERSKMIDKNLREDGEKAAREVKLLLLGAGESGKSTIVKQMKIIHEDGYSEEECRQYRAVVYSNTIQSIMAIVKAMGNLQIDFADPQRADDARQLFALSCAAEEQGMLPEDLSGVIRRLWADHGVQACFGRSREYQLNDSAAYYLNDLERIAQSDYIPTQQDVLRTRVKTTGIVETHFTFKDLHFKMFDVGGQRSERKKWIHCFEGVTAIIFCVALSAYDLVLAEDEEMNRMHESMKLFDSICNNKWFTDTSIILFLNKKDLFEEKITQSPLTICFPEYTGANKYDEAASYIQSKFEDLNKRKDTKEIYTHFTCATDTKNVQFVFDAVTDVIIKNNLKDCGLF

One test addresses T1, chimeric human H3 receptor (Homo sapiens, UniProt Q9Y5N1, E19D).
T1 construct: made in house; host or cells: Sf9 insect cells (baculovirus infection); P2 membrane preparation
Description: Chimeric human H3 receptor GTP binding assay (agonist-stimulated GTP-gamma35S binding, Example 7). The test is classed as biochemical. The settings on record: "*" in Ki of Table II; assay of Example 7; read-out: Ki. In a few lines: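 IC50 values come from non-linear regression of dose-response curves of filter-bound GTP-gamma^35S, counted by scintillation. Membranes were from infected Sf9 cells carrying receptor plus G-protein subunits, 35 μg/tube, with 10 μM GDP present.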
With `O=C(CN1CCN(c2ccc(-c3cc(C(F)(F)F)cc(C(F)(F)F)c3)cc2)CC1)N1CCN(C2CCC2)CC1` [Compound 457, 1-[3′,5′-bis(trifluoromethyl)biphenyl-4-yl]-4-[2-(4-cyclobutylpiperazin-1-yl)-2-oxoethyl]piperazine], the Ki was less than 1000 nM.
In the case of `CC(=O)c1cccc(-c2ccc(N3CCN(CC(=O)N4CCN(C5CCC5)CC4)CC3)nn2)c1` [Compound 455, 1-[3-(6-{4-[2-(4-cyclobutylpiperazin-1-yl)-2-oxoethyl]piperazin-1-yl}pyridazin-3-yl)phenyl]ethanone], the Ki is less than 1000 nM.
On the same count and under the same terms, next, `CCCN(CC1CC1)C1CCN(CC(=O)N2CCN(C(C)CC)CC2)CC1` (stereo not shown) [Compound 449, 1-[2-(4-sec-butylpiperazin-1-yl)-2-oxoethyl]-N-(cyclopropylmethyl)-N-propylpiperidin-4-amine]: less than 1000 nM; `O=C(CN1CCN(c2ccc(-c3ccccc3)cc2)CC1)N1CCN(C2CCC2)CC1` [Compound 494, 1-biphenyl-4-yl-4-[2-(4-cyclobutylpiperazin-1-yl)-2-oxoethyl]piperazine]: less than 1000 nM.

The test is the same for the next values; noted with them: Table II "Ki", symbol "*": Ki in the assay of Example 7; read-out: Ki.
As for `CCC(C)N1CCN(C(=O)CN2CCN(c3cccc(C)c3C)CC2)CC1` (stereo not shown) [Compound 860, 1-sec-butyl-4-{[4-(2,3-dimethylphenyl)piperazin-1-yl]acetyl}piperazine], the Ki was less than 1000 nM.
In the case of `O=C(CN1CCN(c2cnc(-c3ccncc3)cn2)CC1)N1CCN(C2CCC2)CC1` [Compound 917, 2-{4-[2-(4-cyclobutylpiperazin-1-yl)-2-oxoethyl]piperazin-1-yl}-5-pyridin-4-ylpyrazine], the inhibition constant Ki was less than 1000 nM.
With `COc1ccc(N2CCN(CC(=O)N3CCN(C4CCCC4)CC3)CC2)cc1OC` [Compound 836, 1-cyclopentyl-4-{[4-(3,4-dimethoxyphenyl)piperazin-1-yl]acetyl}piperazine], the Ki was less than 1000 nM.
Same read-out and setting: next, `O=C(CN1CCN(c2ccc(-c3ccc(F)cc3)cc2)CC1)N1CCN(C2CCC2)CC1` [Compound 774, 1-cyclobutyl-4-{[4-(4′-fluorobiphenyl-4-yl)piperazin-1-yl]acetyl}piperazine]: less than 1000 nM; `O=C(CN1CCN(c2cnc(-c3cc(C(F)(F)F)cc(C(F)(F)F)c3)cn2)CC1)N1CCN(C2CCC2)CC1` [Compound 913, 2-[3,5-bis(trifluoromethyl)phenyl]-5-{4-[2-(4-cyclobutylpiperazin-1-yl)-2-oxoethyl]piperazin-1-yl}pyrazine]: less than 1000 nM; `CCCc1ccc(-c2cnc(N3CCN(CC(=O)N4CCN(C5CCC5)CC4)CC3)cn2)cc1` [Compound 931, 2-{4-[2-(4-cyclobutylpiperazin-1-yl)-2-oxoethyl]piperazin-1-yl}-5-(4-propylphenyl)pyrazine]: less than 1000 nM.
With `CC(C)N1CCN(C(=O)CN2CCN(c3ccc([N+](=O)[O-])cc3)CC2)CC1` [Compound 851, 1-isopropyl-4-{[4-(4-nitrophenyl)piperazin-1-yl]acetyl}piperazine], the Ki is less than 1000 nM.

Staying with this test, now noted: Table II, "*" in Ki; assay of Example 7; read-out: Ki.
As to `COc1ccc(OC)c(-c2ccc(N3CCN(CC(=O)N4CCN(C5CCC5)CC4)CC3)cc2)c1` [Compound 687, 1-cyclobutyl-4-{[4-(2′,5′-dimethoxybiphenyl-4-yl)piperazin-1-yl]acetyl}piperazine], the Ki was less than 1000 nM.
As to `CCCS(=O)(=O)c1ccc(N2CCN(CC(=O)N3CCN(C4CCC4)CC3)CC2)cc1` [Compound 602, 1-cyclobutyl-4-({4-[4-(propylsulfonyl)phenyl]piperazin-1-yl}acetyl)piperazine], the Ki is less than 1000 nM.
With `O=C(CN1CCN(c2cccc(C(=O)N3CCCCC3)c2)CC1)N1CCN(C2CCC2)CC1` [Compound 585, 1-cyclobutyl-4-({4-[3-(piperidin-1-ylcarbonyl)phenyl]piperazin-1-yl}acetyl)piperazine], the inhibition constant (Ki) is less than 1000 nM.
On the same count and under the same terms, next, `CC1CC(C)CN(C(=O)c2ccc(N3CCN(CC(=O)N4CCN(C5CCC5)CC4)CC3)cc2)C1` (stereo not shown) [Compound 646, 1-cyclobutyl-4-[(4-{4-[(3,5-dimethylpiperidin-1-yl)carbonyl]phenyl}piperazin-1-yl)acetyl]piperazine]: less than 1000 nM.
Still for that read-out and setting: for `CC1CC(C)CN(C(=O)c2ccc(N3CCN(CC(=O)N4CCN(C5CCC5)CC4)CC3)nc2)C1` (stereo not shown) [Compound 653, 1-cyclobutyl-4-[(4-{5-[(3,5-dimethylpiperidin-1-yl)carbonyl]pyridin-2-yl}piperazin-1-yl)acetyl]piperazine] the value was less than 1000 nM.

The test is the same for the next values; noted with them: Table II; assay of Example 7; "*" in Ki; read-out: Ki.
Regarding `Cc1cc(C)cc(-c2ccc(N3CCN(CC(=O)N4CCN(C5CCC5)CC4)CC3)nn2)c1` [Compound 1016, 3-{4-[2-(4-cyclobutylpiperazin-1-yl)-2-oxoethyl]piperazin-1-yl}-6-(3,5-dimethylphenyl) pyridazine], the Ki is less than 1000 nM.
Consider `O=C(NCC1CC1)c1ccc(N2CCN(CC(=O)N3CCN(C4CCC4)CC3)CC2)cc1` [Compound 1133, 4-{4-[2-(4-cyclobutylpiperazin-1-yl)-2-oxoethyl]piperazin-1-yl}-N-(cyclopropylmethyl) benzamide], for which the inhibition constant Ki is less than 1000 nM.
Still for that read-out and setting: next, `CCOc1ccc(-c2cnc(N3CCN(CC(=O)N4CCN(C5CCC5)CC4)CC3)cn2)cc1` [Compound 946, 2-{4-[2-(4-cyclobutylpiperazin-1-yl)-2-oxoethyl]piperazin-1-yl}-5-(4-ethoxyphenyi)pyrazine]: less than 1000 nM; `O=C(CN1CCN(c2ccc(-c3cc(Cl)cc(Cl)c3)nn2)CC1)N1CCN(C2CCC2)CC1` [Compound 1050, 3-{4-[2-(4-cyclobutylpiperazin-1-yl)-2-oxoethyl]piperazin-1-yl}-6-(3,5-dichlorophenyl)pyridazine]: less than 1000 nM.
Still for that read-out and setting: next, `O=C(CN1CCN(c2nc3ccccc3n2Cc2ccc(F)cc2)CC1)N1CCN(C2CCCC2)CC1` [Compound 978, 2-{4-[2-(4-cyclopentylpiperazin-1-yl)-2-oxoethyl]piperazin-1-yl}-1-(4-fluorobenzyl)-1H-benzimidazole]: less than 1000 nM; `COc1ccc(-c2cnc(N3CCN(CC(=O)N4CCN(C5CCC5)CC4)CC3)cn2)c(C)c1` [Compound 950, 2-{4-[2-(4-cyclobutylpiperazin-1-yl)-2-oxoethyl]piperazin-1-yl}-5-(4-methoxy-2-methylphenyl)pyrazine]: less than 1000 nM; `O=C(CN1CCN(c2cnc(-c3cccc(C(F)(F)F)c3)cn2)CC1)N1CCN(C2CCC2)CC1` [Compound 976, 2-{4-[2-(4-cyclobutylpiperazin-1-yl)-2-oxoethyl]piperazin-1-yl}-5-[3-(trifluoromethyl)phenyl] pyrazine]: less than 1000 nM.
For the compound `O=C(CN1CCC2(CC1)c1ccccc1C(=O)N2Cc1ccccc1)N1CCN(C2CCC2)CC1` [Compound 981, 2-benzyl-1′-[2-(4-cyclobutylpiperazin-1-yl)-2-oxoethyl]spiro[isoindole-1,4′-piperidin]-3(2H)-one], the inhibition constant Ki is less than 1000 nM.
Same read-out and setting: next, `CCN(C(=O)c1ccc(N2CCN(CC(=O)N3CCN(C4CCC4)CC3)CC2)cc1)C(C)C` [Compound 1126, 4-{4-[2-(4-cyclobutylpiperazin-1-yl)-2-oxoethyl]piperazin-1-yl}-N-ethyl-N-isopropylbenzamide]: less than 1000 nM; `O=C(CN1CCN(c2cnc(-c3cc(F)cc(F)c3)cn2)CC1)N1CCN(C2CCC2)CC1` [Compound 965, 2-{4-[2-(4-cyclobutylpiperazin-1-yl)-2-oxoethyl]piperazin-1-yl}-5-(3,5-difluorophenyl)pyrazine]: less than 1000 nM.
Same read-out and setting: for `O=C(CN1CCN(c2ccc(-c3ccc(Cl)cc3Cl)nn2)CC1)N1CCN(C2CCC2)CC1` [Compound 1055, 3-{4-[2-(4-cyclobutylpiperazin-1-yl)-2-oxoethyl]piperazin-1-yl}-6-(2,4-dichlorophenyl)pyridazine] the value was less than 1000 nM.

The same test, now with this note: assay of Example 7; "*" in Ki of Table II; read-out: Ki.
For `CCC(CC)CNC(=O)c1ccc(N2CCN(CC(=O)N3CCN(C4CCC4)CC3)CC2)nc1` [Compound 1188, 6-{4-[2-(4-cyclobutylpiperazin-1-yl)-2-oxoethyl]piperazin-1-yl}-N-(2-ethylbutyl)nicotinamide], the Ki is less than 1000 nM.
The same measure, in the same setting: for `CC(C)CN1CCN(C(=O)CN2CCN(c3ccc4c(c3)CCC4=O)CC2)CC1` [Compound 1162, 5-{4-[2-(4-isobutylpiperazin-1-yl)-2-oxoethyl]piperazin-1-yl}indan-1-one] the value was less than 1000 nM.
Still for that read-out and setting: next, `CSc1ccc(C(=O)NC2CCN(CC(=O)N3CCN(C4CCC4)CC3)C2)cc1` (stereo not shown) [Compound 1241, N-{1-[2-(4-cyclobutylpiperazin-1-yl)-2-oxoethyl]pyrrolidin-3-yl}-4-(methylthio)benzamide]: less than 1000 nM; `CCC(C)NC(=O)c1cccc(N2CCN(CC(=O)N3CCN(C4CCC4)CC3)CC2)c1` (stereo not shown) [Compound 1203, N-(sec-butyl)-3-{4-[2-(4-cyclobutylpiperazin-1-yl)-2-oxoethyl]piperazin-1-yl}benzamide]: less than 1000 nM.

Staying with this test, now noted: assay of Example 7; symbol * in column headed Ki of Table II; read-out: Ki.
With `O=C(CN1CCN(c2ccc(C(=O)N3CCCCCC3)cn2)CC1)N1CCN(C2CCC2)CC1` [Compound 415, 1-[(6-{4-[2-(4-cyclobutylpiperazin-1-yl)-2-oxoethyl]piperazin-1-yl}pyridin-3-yl)carbonyl]azepane], the Ki was less than 1000 nM.
Take `O=C(CN1CCC(N2CCCCC2)CC1)N1CCN(C2CCCCC2)CC1` [Compound 437, 1′-[2-(4-cyclohexylpiperazin-1-yl)-2-oxoethyl]-1,4′-bipiperidine]: the Ki was less than 1000 nM.
`CC1CN(c2ccc(C(F)(F)F)cn2)CCN1CC(=O)N1CCN(C2CCCCC2)CC1` (stereo not shown) [Compound 438, 1-[2-(4-cyclohexylpiperazin-1-yl)-2-oxoethyl]-2-methyl-4-[5-(trifluoromethyl)pyridin-2-yl]piperazine]: the Ki is less than 1000 nM.

The term Ki denotes the dissociation constant of the complex between target and ligand, obtained from inhibition or displacement.
